Source: US9809574B2, “Isoindoline or isoquinoline compounds, a process for their preparation and pharmaceutical compositions containing them” (LES LABORATOIRES SERVIER, priority 2013, dated 2017)
Structures can show the parent of a compound that is named as a salt.

Experiments:
[1] = system: RS4; 11 leukaemia cell line; experiment: In vitro cytotoxicity, Microculture Tetrazolium Assay (MTT); type: cell-based; details: 11 cells exposed for 48 hours
Description: The cytotoxicity studies were carried out on the RS4; 11 leukaemia cell line and on H146 small Cell Lung Carcinoma cell line. The cells are distributed onto microplates and exposed to the test compounds for 48 hours. The cell viability is then quantified by a colorimetric assay, the Microculture Tetrazolium Assay (Cancer Res., 1987, 47, 939-942).

Bcl-2 protein = Bcl-2 protein (histag-Bcl-2, UniProtKB P10415) (Homo sapiens (Human), UniProt P10415); experiment: Inhibition of Bcl-2 by the fluorescence polarisation technique; type: binding; details: fluorescence polarisation test; incubation for 2 hours; read-out: IC50 (nM) Bcl-2 FP
From the text: For partial inhibitors, the percentage fluorescence polarisation inhibition for a given concentration of the test compound is indicated.

Sequence of Bcl-2 protein (P10415 whole entry): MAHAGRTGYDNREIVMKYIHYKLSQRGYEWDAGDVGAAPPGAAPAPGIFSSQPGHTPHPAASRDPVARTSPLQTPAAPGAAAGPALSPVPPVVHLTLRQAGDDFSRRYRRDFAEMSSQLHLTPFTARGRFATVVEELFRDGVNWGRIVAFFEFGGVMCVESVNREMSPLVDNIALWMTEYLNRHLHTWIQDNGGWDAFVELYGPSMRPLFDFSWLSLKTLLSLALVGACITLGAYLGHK

SMILES	IC50 ([1]; Homo sapiens) [nM]	IC50 (Bcl-2 protein) [nM]	IC50 [1] [nM]
Cc1c(C(=O)N(C)c2ccc(O)cc2)cc(-c2cc3c(cc2C(=O)N2Cc4ccccc4C[C@H]2C)CN(C(=O)Oc2cccc(C(=O)O)c2)CC3)n1C [Example 715, 3-(6-{4-[(4-Hydroxyphenyl)(methyl)carbamoyl]-1,5-dimethyl-1H-pyrrol-2-yl}-7-[(3R)-3-methyl-1,2,3,4-tetrahydroisoquinoline-2-carbonyl]-1,2,3,4-tetrahydroisoquinoline-2-carbonyloxy)benzoic acid]	> 150	2.2	–
COc1ccccc1OC(=O)N1CCc2cc(-c3cc(C(=O)N(C)c4ccc(O)cc4)c4n3CCCC4)c(C(=O)N3Cc4ccccc4C[C@H]3CN3CCOCC3)cc2C1 [Example 128, 2-Methoxyphenyl 6-{1-[(4-hydroxyphenyl)(methyl)carbamoyl]-5,6,7,8-tetrahydroindolizin-3-yl}-7-[(3S)-3-(morpholin-4-ylmethyl)-1,2,3,4-tetrahydroisoquinoline-2-carbonyl]-1,2,3,4-tetrahydroisoquinoline-2-carboxylate]	8.2	3.5	–
Cc1c(C(=O)N(C)c2ccc(O)cc2)cc(-c2cc3c(cc2C(=O)N2Cc4ccccc4C[C@H]2C)CN(C(=O)Oc2cccc(OCCN(C)C)c2)CC3)n1C [Example 434, 3-[2-(Dimethylamino)ethoxy]phenyl 6-{4-[(4-hydroxyphenyl)(methyl)carbamoyl]-1,5-dimethyl-1H-pyrrol-2-yl}-7-[(3R)-3-methyl-1,2,3,4-tetrahydroisoquinoline-2-carbonyl]-1,2,3,4-tetrahydrisoquinoline-2-carboxylate]	–	2.9	1.6
Cc1c(C(=O)N(C)c2ccccc2)cc(-c2cc3c(cc2C(=O)N2Cc4ccccc4C[C@H]2C)CN(C(=O)Oc2ccccc2)CC3)n1C [Example 114, Phenyl 6-{1,5-dimethyl-4-[methyl(phenyl)carbamoyl]-1H-pyrrol-2-yl}-7-[(3R)-3-methyl-1,2,3,4-tetrahydroisoquinoline-2-carbonyl]-1,2,3,4-tetrahydroisoquinoline-2-carboxylate]	28	3.8	–
CCC(C(=O)N1CCc2cc(-c3cc(C(=O)N(C)c4ccc(O)cc4)c4n3CCCC4)c(C(=O)N3Cc4ccccc4C[C@H]3C)cc2C1)c1ccccc1 (stereo partly drawn) [Example 95, N-(4-Hydroxyphenyl)-N-methyl-3-{7-[(3R)-3-methyl-1,2,3,4-tetrahydroisoquinoline-2-carbonyl]-2-(2-phenylbutanoyl)-1,2,3,4-tetrahydroisoquinolin-6-yl}-5,6,7,8-tetrahydroindolizine-1-carboxamide]	115	14	–
Cc1c(C(=O)N(C)c2ccccc2)cc(-c2cc3c(cc2C(=O)N2Cc4ccccc4C[C@H]2C)CN(C(=O)Oc2cnc4[nH]ccc4c2)CC3)n1C [Example 636, 1H-Pyrrolo[2,3-b]pyridin-5-yl 6-{1,5-dimethyl-4-[methyl(phenyl)carbamoyl]-1H-pyrrol-2-yl}-7-[(3R)-3-methyl-1,2,3,4-tetrahydroisoquinoline-2-carbonyl]-1,2,3,4-tetrahydroisoquinoline-2-carboxylate]	34	11	–
Cc1c(C(=O)N(C)c2ccccc2)cc(-c2cc3c(cc2C(=O)N2Cc4ccccc4C[C@H]2C)CN(C(=O)Oc2ccc(CCC(=O)N(C)C)cc2)CC3)n1C [Example 788, 4-[2-(Dimethylcarbamoyl)ethyl]phenyl 6-{1,5-dimethyl-4-[methyl(phenyl)carbamoyl]-1H-pyrrol-2-yl}-7-[(3R)-3-methyl-1,2,3,4-tetrahydroisoquinoline-2-carbonyl]-1,2,3,4-tetrahydroisoquinoline-2-carboxylate]	14	4.4	–
CN(C(=O)c1cc(-c2cc3c(cc2C(=O)N2Cc4ccccc4C[C@H]2CN2CCOCC2)CN(C(=O)Cc2ccccc2)C3)n2c1CCCC2)c1ccc(O)cc1 [Example 8, N-(4-Hydroxyphenyl)-N-methyl-3-{6-[(3S)-3-(morpholin-4-ylmethyl)-1,2,3,4-tetrahydroisoquinoline-2-carbonyl]-2-(2-phenylacetyl)-2,3-dihydro-1H-isoindol-5-yl}-5,6,7,8-tetrahydroindolizine-1-carboxamide; hydrochloride salt]	98	7.3	–
Cc1c(C(=O)N(C)c2ccc(O)cc2)cc(-c2cc3c(cc2C(=O)N2Cc4ccccc4C[C@H]2CCN2CCOCC2)CN(C(=O)Oc2ccccc2)CC3)n1C [Example 216, Phenyl 6-{4-[(4-hydroxyphenyl)(methyl)carbamoyl]-1,5-dimethyl-1H-pyrrol-2-yl}-7-[(3S)-3-[2-(morpholin-4-yl)ethyl]-1,2,3,4-tetrahydroisoquinoline-2-carbonyl]-1,2,3,4-tetrahydroisoquinoline-2-carboxylate]	2.9	2.4	–
Cc1c(C(=O)N(C)c2ccc(O)cc2)cc(-c2cc3c(cc2C(=O)N2Cc4ccccc4C[C@H]2CN2CCN(C)CC2)CN(C(=O)C(F)(F)F)CC3)n1C [Example 783, N-(4-Hydroxyphenyl)-N,1,2-trimethyl-5-{7-[(3S)-3-[(4-methylpiperazin-1-yl)methyl]-1,2,3,4-tetrahydroisoquinoline-2-carbonyl]-2-(trifluoroacetyl)-1,2,3,4-tetrahydroisoquinolin-6-yl}-1H-pyrrole-3-carboxamide]	> 150	23	–
C[C@@H]1Cc2ccccc2CN1C(=O)c1cc2c(cc1-c1cc(C(=O)N(C)c3ccc(O)cc3)c3n1CCCC3)CCN(C(=O)Oc1ccccc1)C2 [Example 46, Phenyl 6-{1-[(4-hydroxyphenyl)(methyl)carbamoyl]-5,6,7,8-tetrahydroindolizin-3-yl}-7-[(3R)-3-methyl-1,2,3,4-tetrahydroisoquinoline-2-carbonyl]-1,2,3,4-tetrahydroisoquinoline-2-carboxylate]	2.8	3.7	–
C[C@@H]1Cc2ccccc2CN1C(=O)c1cc2c(cc1-c1cc(C(=O)N(C)c3ccc(O)cc3)c3n1CCCC3)CCN(C(=O)Oc1ccc(N)cc1)C2 [Example 58, 4-Aminophenyl 6-{1-[(4-hydroxyphenyl)(methyl)carbamoyl]-5,6,7,8-tetrahydroindolizin-3-yl}-7-[(3R)-3-methyl-1,2,3,4-tetrahydroisoquinoline-2-carbonyl]-1,2,3,4-tetrahydroisoquinoline-2-carboxylate]	3.3	4.2	–
C[C@@H]1Cc2ccccc2CN1C(=O)c1cc2c(cc1-c1cc(C(=O)N(C)c3ccc(O)cc3)c3n1CCCC3)CCN(C(=O)Cc1ccc(CN(C)C)cc1)C2 [Example 144, 3-[2-(2-{4-[(Dimethylamino)methyl]phenyl}acetyl)-7-[(3R)-3-methyl-1,2,3,4-tetrahydroisoquinoline-2-carbonyl]-1,2,3,4-tetrahydroisoquinolin-6-yl]-N-(4-hydroxyphenyl)-N-methyl-5,6,7,8-tetrahydroindolizine-1-carboxamide]	82	4.8	–
CN(C(=O)c1cc(-c2cc3c(cc2C(=O)N2Cc4ccccc4C[C@H]2CN2CCOCC2)CN(S(=O)(=O)c2ccccc2)CC3)n2c1CCCC2)c1ccc(O)cc1 [Example 3, 3-[2-(Benzenesulfonyl)-7-[(3S)-3-(morpholin-4-ylmethyl)-1,2,3,4-tetrahydroisoquinoline-2-carbonyl]-1,2,3,4-tetrahydroisoquinolin-6-yl]-N-(4-hydroxyphenyl)-N-methyl-5,6,7,8-tetrahydroindolizine-1-carboxamide]	236	18	–
C[C@@H]1Cc2ccccc2CN1C(=O)c1cc2c(cc1-c1cc(C(=O)N(C)c3ccc(O)cc3)c3n1CCCC3)CCN(C(=O)Cc1ccc(C#N)cc1)C2 [Example 53, 3-{2-[2-(4-Cyanophenyl)acetyl]-7-[(3R)-3-methyl-1,2,3,4-tetrahydroisoquinoline-2-carbonyl]-1,2,3,4-tetrahydroisoquinolin-6-yl}-N-(4-hydroxyphenyl)-N-methyl-5,6,7,8-tetrahydroindolizine-1-carboxamide]	5	2.4	–
CC(Cc1ccccc1)C(=O)N1Cc2cc(C(=O)N3Cc4ccccc4C[C@H]3C)c(-c3cc(C(=O)N(C)c4ccc(O)cc4)c4n3CCCC4)cc2C1 (stereo partly drawn) [Example 23, 3-[2-(2-Benzylpropanoyl)-6-[(3R)-3-methyl-1,2,3,4-tetrahydroisoquinoline-2-carbonyl]-2,3-dihydro-1H-isoindol-5-yl]-N-(4-hydroxyphenyl)-N-methyl-5,6,7,8-tetrahydroindolizine-1-carboxamide]	61	13	–
C[C@@H]1Cc2ccccc2CN1C(=O)c1cc2c(cc1-c1cc(C(=O)N(C)c3ccc(O)cc3)c3n1CCCC3)CN(C(=O)Nc1ccccc1)C2 [Example 60, 5-{1-[(4-Hydroxyphenyl)(methyl)carbamoyl]-5,6,7,8-tetrahydroindolizin-3-yl}-6-[(3R)-3-methyl-1,2,3,4-tetrahydroisoquinoline-2-carbonyl]-N-phenyl-2,3-dihydro-1H-isoindole-2-carboxamide]	46	5.9	–
C[C@@H]1Cc2ccccc2CN1C(=O)c1cc2c(cc1-c1cc(C(=O)N(c3ccccc3)c3ccc(O)cc3)c3n1CCCC3)CN(C(=O)OC(C)(C)C)C2 [Example 43, tert-Butyl 5-{1-[(4-hydroxyphenyl)(phenyl)carbamoyl]-5,6,7,8-tetrahydroindolizin-3-yl}-6-[(3R)-3-methyl-1,2,3,4-tetrahydroisoquinoline-2-carbonyl]-2,3-dihydro-1H-isoindole-2-carboxylate]	502	77	–
Cc1c(C(=O)N(C)c2ccc(O)cc2)cc(-c2cc3c(cc2C(=O)N2Cc4ccccc4C[C@H]2CN2CCOCC2)CN(C(=O)Nc2ccccc2)CC3)n1C [Example 245, 6-{4-[(4-Hydroxyphenyl)(methyl)carbamoyl]-1,5-dimethyl-1H-pyrrol-2-yl}-7-[(3S)-3-(morpholin-4-ylmethyl)-1,2,3,4-tetrahydroisoquinoline-2-carbonyl]-N-phenyl-1,2,3,4-tetrahydroisoquinoline-2-carboxamide]	92	4.2	–
